Data published in ChEMBL document CHEMBL4622850, “Discovery and optimization of new oxadiazole substituted thiazole RORγt inverse agonists through a bioisosteric amide replacement approach” (Bioorg Med Chem Lett, 2020).
Values after ≈ are worked out from the molar mass of the structure shown.

What was measured:
Cytochrome P450 2C19 = Cytochrome P450 2C19 (Homo sapiens, UniProt P33261); assay: Inhibition of CYP2C19 (unknown origin); type: ADME
[1] = molecular target: T1, Nuclear receptor ROR-gamma (Mus musculus, UniProt P51450); assay: Inverse agonist activity at RORgammat in mouse whole blood assessed as reduction in IL-17a production; type: tissue-based
T1 sequence (P51450 whole entry): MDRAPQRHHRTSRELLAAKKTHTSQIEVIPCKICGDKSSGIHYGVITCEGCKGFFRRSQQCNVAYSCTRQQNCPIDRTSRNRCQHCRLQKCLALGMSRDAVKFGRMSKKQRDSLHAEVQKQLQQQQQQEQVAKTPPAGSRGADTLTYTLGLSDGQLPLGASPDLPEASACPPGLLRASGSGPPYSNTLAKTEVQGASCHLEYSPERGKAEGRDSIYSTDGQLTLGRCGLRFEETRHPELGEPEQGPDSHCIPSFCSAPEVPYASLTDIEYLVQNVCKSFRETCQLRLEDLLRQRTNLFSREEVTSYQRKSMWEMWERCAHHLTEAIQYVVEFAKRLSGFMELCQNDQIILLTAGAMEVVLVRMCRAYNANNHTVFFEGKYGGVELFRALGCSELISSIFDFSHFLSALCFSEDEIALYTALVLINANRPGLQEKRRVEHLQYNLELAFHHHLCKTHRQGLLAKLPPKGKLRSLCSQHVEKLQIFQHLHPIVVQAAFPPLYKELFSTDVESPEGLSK

[2] = Solubility of compound by pH 2; type: physicochemical; conditions: buffer
[3] = Solubility of compound by pH 7; type: physicochemical; conditions: buffer
[4] = AUC in rat at 5 mg/kg, po; type: ADME, organism-based; conditions: in vivo
[5] = Cmax in rat at 5 mg/kg, po; type: ADME, organism-based; parameters: dose 5 mg/kg, route oral; conditions: in vivo
[6] = Oral bioavailability in rat at 1 mg/kg; type: ADME, organism-based; conditions: in vivo
[7] = molecular target: T2, Nuclear receptor ROR-beta (Homo sapiens, UniProt Q92753); assay: Binding affinity to RORbeta (unknown origin) assessed as dissociation constant by thermal shift binding assay
T2 sequence (Q92753 whole entry): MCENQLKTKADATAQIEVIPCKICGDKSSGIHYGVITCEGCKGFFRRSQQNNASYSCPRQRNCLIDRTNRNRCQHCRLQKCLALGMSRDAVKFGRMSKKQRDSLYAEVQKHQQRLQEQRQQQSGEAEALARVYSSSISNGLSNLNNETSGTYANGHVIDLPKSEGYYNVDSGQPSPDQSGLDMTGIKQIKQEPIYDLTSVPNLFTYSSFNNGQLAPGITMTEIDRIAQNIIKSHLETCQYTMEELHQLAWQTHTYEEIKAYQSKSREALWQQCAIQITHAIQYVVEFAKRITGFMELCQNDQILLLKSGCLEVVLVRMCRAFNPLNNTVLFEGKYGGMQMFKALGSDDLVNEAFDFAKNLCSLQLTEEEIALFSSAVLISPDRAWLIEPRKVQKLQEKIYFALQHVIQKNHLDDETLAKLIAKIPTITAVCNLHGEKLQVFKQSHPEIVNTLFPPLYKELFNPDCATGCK

[8] = molecular target: T3, Nuclear receptor subfamily 1 group I member 2 (Homo sapiens, UniProt O75469); assay: Activation of PXR (unknown origin) at 5 uM; type: ADME
T3 sequence (O75469 whole entry): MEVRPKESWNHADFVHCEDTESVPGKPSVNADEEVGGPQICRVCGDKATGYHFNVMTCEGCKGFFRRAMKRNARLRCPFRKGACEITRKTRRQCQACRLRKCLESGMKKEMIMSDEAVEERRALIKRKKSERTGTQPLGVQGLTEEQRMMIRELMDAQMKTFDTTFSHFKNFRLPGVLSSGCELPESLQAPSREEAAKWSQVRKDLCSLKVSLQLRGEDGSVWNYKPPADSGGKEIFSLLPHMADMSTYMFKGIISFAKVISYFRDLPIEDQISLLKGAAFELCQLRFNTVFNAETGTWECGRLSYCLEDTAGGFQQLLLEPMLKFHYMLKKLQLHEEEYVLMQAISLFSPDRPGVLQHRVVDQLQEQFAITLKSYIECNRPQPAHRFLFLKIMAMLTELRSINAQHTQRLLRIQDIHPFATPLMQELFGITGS

[9] = Metabolic stability in rat liver microsomes assessed as half life; type: ADME, Microsome
Cytochrome P450 2C9 = Cytochrome P450 2C9 (Homo sapiens, UniProt P11712); assay: Inhibition of CYP2C9 (unknown origin); type: ADME
[10] = Half life in rat at 1 mg/kg, iv; type: ADME, organism-based; conditions: in vivo
[11] = Clearance in rat at 1 mg/kg, iv; type: ADME, organism-based; conditions: in vivo
[12] = Volume of distribution in rat at 1 mg/kg, iv; type: ADME, organism-based; conditions: in vivo

Cytochrome P450 2C9, sequence (P11712 whole entry): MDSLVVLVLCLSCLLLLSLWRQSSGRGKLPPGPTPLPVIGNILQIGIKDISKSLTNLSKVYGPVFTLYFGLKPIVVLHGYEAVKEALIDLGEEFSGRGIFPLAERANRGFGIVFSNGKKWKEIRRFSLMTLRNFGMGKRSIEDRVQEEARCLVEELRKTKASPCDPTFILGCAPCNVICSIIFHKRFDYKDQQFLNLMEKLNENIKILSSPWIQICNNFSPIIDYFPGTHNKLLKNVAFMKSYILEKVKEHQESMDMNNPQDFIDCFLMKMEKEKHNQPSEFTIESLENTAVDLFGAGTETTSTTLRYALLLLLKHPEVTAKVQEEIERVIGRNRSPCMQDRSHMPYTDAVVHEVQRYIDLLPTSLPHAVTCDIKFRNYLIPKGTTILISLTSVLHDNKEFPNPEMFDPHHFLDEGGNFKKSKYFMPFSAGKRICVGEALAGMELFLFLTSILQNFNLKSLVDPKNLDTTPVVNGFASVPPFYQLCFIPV
Cytochrome P450 2C19, sequence (P33261 whole entry): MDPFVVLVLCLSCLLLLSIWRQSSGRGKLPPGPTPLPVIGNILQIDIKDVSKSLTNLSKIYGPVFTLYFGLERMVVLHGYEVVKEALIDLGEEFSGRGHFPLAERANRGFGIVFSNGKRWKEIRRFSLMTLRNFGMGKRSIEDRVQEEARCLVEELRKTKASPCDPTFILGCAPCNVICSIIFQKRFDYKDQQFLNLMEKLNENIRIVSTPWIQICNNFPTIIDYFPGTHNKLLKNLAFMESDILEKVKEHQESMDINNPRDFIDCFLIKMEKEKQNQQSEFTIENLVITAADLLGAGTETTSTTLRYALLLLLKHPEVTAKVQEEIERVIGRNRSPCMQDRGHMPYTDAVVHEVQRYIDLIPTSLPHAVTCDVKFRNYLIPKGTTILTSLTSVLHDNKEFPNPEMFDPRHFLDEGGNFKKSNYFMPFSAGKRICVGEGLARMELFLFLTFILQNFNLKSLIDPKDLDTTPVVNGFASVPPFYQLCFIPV

| Structure (SMILES) | IC50 [1] | solubility [2] | solubility [3] | other results |
| --- | --- | --- | --- | --- |
| C[C@H](NS(=O)(=O)c1ccc(-c2sc(-c3cc(CC(C)(C)C(=O)O)ncn3)nc2CC2CCC2)c(Cl)c1Cl)C(F)(F)F | – | – | – | IC50 (Cytochrome P450 2C19): 790 nM |
| CC(C)(C)NS(=O)(=O)c1ccc(-c2sc(C(=O)N[C@H]3C[C@H](C(=O)O)C3)nc2CC2CCCCC2)c2ccccc12 | – | < 1 µM | < 1 µM | AUC [4]: 302 ng·h/mL; Cmax [5]: 220 nM; bioavailability [6]: 20% |
| C[C@H](NS(=O)(=O)c1ccc(-c2sc(CC(C)(C)C(=O)O)nc2CC2CCC2)c(Cl)c1Cl)C(F)(F)F | 1870 nM | < 4 µM | 268 µM (≈ 154 µg/mL) | Activity [8]: 33% |
| C[C@H](NS(=O)(=O)c1ccc(-c2sc(C(=O)NCC(C)(C)O)nc2CC2CCC2)c(Cl)c1Cl)C(F)(F)F | – | – | – | half-life [9]: 0.617 h |
| CC[C@H](NS(=O)(=O)c1ccc(-c2sc(CC(C)(C)C(=O)O)nc2CC2CCC2)c(Cl)c1Cl)C(F)(F)F | – | < 4 µM | 178 µM (≈ 105 µg/mL) | Activity [8]: 40% |
| C[C@H](NS(=O)(=O)c1ccc(-c2sc(CC(C)(C)C(=O)O)nc2CC2CCC2)c(C(F)(F)F)c1)C(F)(F)F | – | – | – | Activity [8]: 43% |
| C[C@H](NS(=O)(=O)c1ccc(-c2sc(-c3cc(CC(C)(C)C(=O)O)on3)nc2CC2CCC2)c(Cl)c1Cl)C(F)(F)F | – | < 4 µM | < 4 µM | – |
| C[C@H](NS(=O)(=O)c1ccc(-c2sc(-c3nnc([C@H]4C[C@H](C(=O)O)C4)o3)nc2CC2CCC2)c(Cl)c1Cl)C(F)(F)F | – | < 4 µM | 118 µM (≈ 75.5 µg/mL) | – |
| C[C@H](NS(=O)(=O)c1ccc(-c2sc(-c3nnc(CC(C)(C)C(=O)O)s3)nc2CC2CCC2)c(Cl)c1Cl)C(F)(F)F | – | – | – | IC50 (Cytochrome P450 2C9): 900 nM |
| CC(C)(O)CNC(=O)c1nc(CC2CCCCC2)c(-c2ccc(S(=O)(=O)NC(C)(C)C)c3ccccc23)s1 | – | < 4 µM | < 4 µM | – |
| CC[C@H](NS(=O)(=O)c1ccc(-c2sc(CC(C)(C)C(=O)O)nc2CC2CCC2)c(Cl)c1)C(F)(F)F | – | – | – | Activity [8]: 2% |
| C[C@H](NS(=O)(=O)c1ccc(-c2sc(-c3cnc(CC(C)(C)C(=O)O)s3)nc2CC2CCC2)c(Cl)c1Cl)C(F)(F)F | – | < 4 µM | < 4 µM | – |
| CC(C)(C)NS(=O)(=O)c1ccc(-c2sc(-c3nnc(C(C)(C)O)o3)nc2CC2CCCCC2)c2ccccc12 | – | < 1 µM | < 1 µM | – |

Second part, led by results:

| IC50 [1] | solubility [2] | solubility [3] | Structure (SMILES) | other results |
| --- | --- | --- | --- | --- |
| 120 nM | 41 µM (≈ 28.2 µg/mL) | 99 µM (≈ 68.2 µg/mL) | CC[C@H](NS(=O)(=O)c1ccc(-c2sc(-c3nnc(CC(C)(C)O)o3)nc2C(=O)N2CCC(F)CC2)c(Cl)c1Cl)C(F)(F)F | – |
| – | 9.7 µM (≈ 6.41 µg/mL) | 6.4 µM (≈ 4.23 µg/mL) | C[C@H](NS(=O)(=O)c1ccc(-c2sc(-c3noc(C(C)(C)O)n3)nc2C(=O)N2CCC(F)CC2)c(Cl)c1Cl)C(F)(F)F | Kd [7]: > 91000 nM |
| 790 nM | < 4 µM | 38 µM (≈ 24.4 µg/mL) | C[C@H](NS(=O)(=O)c1ccc(-c2sc(-c3noc(CC(C)(C)C(=O)O)n3)nc2CC2CCC2)c(Cl)c1Cl)C(F)(F)F | – |
| 230 nM | < 4 µM | 69 µM (≈ 46.1 µg/mL) | CC[C@H](NS(=O)(=O)c1ccc(-c2sc(-c3nnc(CC(C)(C)C(=O)O)o3)nc2CC2CCCC2)c(C(F)F)c1F)C(F)(F)F | – |
| – | < 4 µM | 57 µM (≈ 38.8 µg/mL) | C[C@H](NS(=O)(=O)c1ccc(-c2sc(-c3nnc(CC(C)(C)C(=O)O)o3)nc2Cc2ccc(F)cc2)c(C(F)F)c1F)C(F)(F)F | – |
| – | < 4 µM | 398 µM (≈ 278 µg/mL) | C[C@H](NS(=O)(=O)c1ccc(-c2sc(-c3nnc(CC(C)(C)C(=O)O)o3)nc2C(=O)N2CCCC[C@@H]2C)c(C(F)F)c1F)C(F)(F)F | – |
| 9000 nM | < 4 µM | 363 µM (≈ 239 µg/mL) | COC(C)(C)Cc1nc(-c2nnc(CC(C)(C)C(=O)O)o2)sc1-c1ccc(S(=O)(=O)N[C@@H](C)C(F)(F)F)c(F)c1C(F)F | – |
| 1540 nM | < 4 µM | < 4 µM | CC[C@H](NS(=O)(=O)c1ccc(-c2sc(-c3nnc(CC(C)(C)C(=O)O)o3)nc2CC2CCCCC2)c(C(F)F)c1F)C(F)(F)F | – |
| 448 nM | 54 µM (≈ 38.1 µg/mL) | 182 µM (≈ 128 µg/mL) | C[C@H](NS(=O)(=O)c1ccc(-c2sc(-c3nnc(CC(C)(C)C(=O)O)o3)nc2CN2CCCC(F)(F)C2)c(C(F)F)c1F)C(F)(F)F | – |
| – | < 4 µM | 24 µM (≈ 14.9 µg/mL) | C[C@H](NS(=O)(=O)c1ccc(-c2sc(-c3nnc(CC(C)(C)C(=O)O)o3)nc2CC2CCC2)c2ccccc12)C(F)(F)F | AUC [4]: 13100 ng·h/mL; Cmax [5]: 2300 nM; half-life [10]: 3.1 h; clearance [11]: 6 mL/min/kg; bioavailability [6]: 96%; Vd [12]: 1.1 L/kg; half-life [9]: > 3 h |
| 100 nM | – | 55 µM (≈ 34.7 µg/mL) | CCN(CC)C(=O)c1nc(-c2nnc(C(C)(C)O)o2)sc1-c1ccc(S(=O)(=O)N[C@@H](C)C(F)(F)F)c(Cl)c1Cl | Kd [7]: > 60000 nM; half-life [9]: 1.58 h |
| – | – | 165 µM (≈ 109 µg/mL) | C[C@H](NS(=O)(=O)c1ccc(-c2sc(-c3nnc(C(C)(C)O)o3)nc2C(=O)N2CCC(F)CC2)c(Cl)c1Cl)C(F)(F)F | Kd [7]: > 50000 nM |
